How the values were obtained:
PS1 fibroblasts [1] = assay: Phospholipid accumulation by LipidTOX; assay type: cell-based, human; settings: 10 μM, 24 h
secretory ASM = target: T1, secretory ASM (Homo sapiens, UniProt P17405); assay: Secretory ASM activity in PS1-derived supernatant medium; assay type: biochemical; settings: P-sup, assay buffer with zinc, 10 μM, 1 h
T1 sequence (P17405 47-631): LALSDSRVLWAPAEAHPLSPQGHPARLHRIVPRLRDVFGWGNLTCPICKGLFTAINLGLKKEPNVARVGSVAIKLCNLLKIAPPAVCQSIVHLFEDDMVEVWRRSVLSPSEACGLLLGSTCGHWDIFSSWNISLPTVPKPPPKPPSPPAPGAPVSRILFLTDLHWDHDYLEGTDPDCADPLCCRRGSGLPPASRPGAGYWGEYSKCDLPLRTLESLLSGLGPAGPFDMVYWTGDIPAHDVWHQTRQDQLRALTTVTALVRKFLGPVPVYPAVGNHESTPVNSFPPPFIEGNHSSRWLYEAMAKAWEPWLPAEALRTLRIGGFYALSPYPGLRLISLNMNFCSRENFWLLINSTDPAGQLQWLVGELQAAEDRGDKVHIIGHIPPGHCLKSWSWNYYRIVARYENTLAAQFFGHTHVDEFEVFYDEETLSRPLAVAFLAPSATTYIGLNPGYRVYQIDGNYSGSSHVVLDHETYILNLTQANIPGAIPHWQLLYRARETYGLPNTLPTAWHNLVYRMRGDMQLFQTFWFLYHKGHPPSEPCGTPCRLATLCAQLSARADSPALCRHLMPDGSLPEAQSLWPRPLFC

ASM [2] = target: T2, ASM (Homo sapiens, UniProt P17405); assay: ASM activity after leupeptin preincubation in PS1 fibroblasts; assay type: cell-based; settings: 25 µM leupeptin 24 h, then compound 30 min
T2 sequence (P17405 47-631): T1 sequence (P17405 47-631)

PS1 fibroblasts [3] = assay: Ceramide production in PS1 fibroblasts; assay type: cell-based, human; settings: 10 μM, 30 min
APP/PS1 mice = assay type: in vivo, mouse; settings: p.o., KARI 201 1, 5, or 10 mg⋅kg−1, AMI 100 mg⋅kg−1
ASM [4] = target: T2, ASM; assay: ASM activity in AD patient; assay type: cell-based; settings: PS1 fibroblasts, 10 μM, 30 min

CN(C)CCC=C1c2ccccc2CCc2ccccc21 [AMI, amitriptyline]
accumulation of phospholipids (LipidTOX MFI) (PS1 fibroblasts [1]): induced accumulation of phospholipids | secretory ASM activity (secretory ASM): did not inhibit ASM activity | effect of leupeptin preincubation on ASM inhibition (ASM [2]): prevented ASM inhibition | ceramide production (PS1 fibroblasts [3]): decreased | Survival (APP/PS1 mice): not affected | body weight (APP/PS1 mice): not affected | ASM activity in cell lysates (ASM [4]): efficiently inhibited

Source: PMC8784098 (Proceedings of the National Academy of Sciences of the …, 2022)
